Activity calls are given as the source filed them. The calls are words filed in the database; no cut-off is given here.
Experiments:
SW480 = assay: Antiproliferative activity against human SW480 cells assessed as reduction in cell viability after 72 hrs by MTT assay; assay type: functional, cell-based; settings: SW480, 72 h
[1] = target: Casein kinase I isoform gamma-1 (Homo sapiens) (UniProt Q9HCP0); assay: Inhibition of recombinant human CK1gamma1 (25 to 355 residues) assessed as residual activity at 10 uM using KRRRALS(p)VASLPGL as substrate measured after 40 mins in presence of [gamma33P]ATP by scintillation counting method
[2] = target: cGMP-dependent protein kinase 1 (Homo sapiens) (UniProt Q13976); assay: Inhibition of recombinant full-length human PKG1beta assessed as residual activity at 10 uM using RRRLSFAEPG as substrate measured after 40 mins in presence of [gamma33P]ATP by scintillation counting method
Chain of cGMP-dependent protein kinase 1 (Homo sapiens) (Q13976 whole entry): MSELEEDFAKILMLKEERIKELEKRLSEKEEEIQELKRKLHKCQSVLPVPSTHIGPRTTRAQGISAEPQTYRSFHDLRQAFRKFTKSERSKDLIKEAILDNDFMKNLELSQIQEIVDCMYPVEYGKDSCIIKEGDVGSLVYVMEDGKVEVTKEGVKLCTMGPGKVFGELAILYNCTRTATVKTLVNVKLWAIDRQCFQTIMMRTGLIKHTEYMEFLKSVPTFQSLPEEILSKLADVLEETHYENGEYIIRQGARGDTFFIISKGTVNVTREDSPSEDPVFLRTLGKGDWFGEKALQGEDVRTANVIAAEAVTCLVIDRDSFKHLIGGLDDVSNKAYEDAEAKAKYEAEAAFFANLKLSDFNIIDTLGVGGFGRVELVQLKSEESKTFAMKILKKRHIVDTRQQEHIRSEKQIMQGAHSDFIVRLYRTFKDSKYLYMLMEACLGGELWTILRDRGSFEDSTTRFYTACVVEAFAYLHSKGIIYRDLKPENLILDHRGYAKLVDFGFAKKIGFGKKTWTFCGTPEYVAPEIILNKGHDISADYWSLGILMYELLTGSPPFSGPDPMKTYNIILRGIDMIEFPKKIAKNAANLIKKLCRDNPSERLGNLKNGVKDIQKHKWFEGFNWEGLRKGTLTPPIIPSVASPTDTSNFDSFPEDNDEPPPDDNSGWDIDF

[3] = tested on: Hepatocyte growth factor receptor (Homo sapiens), P08581 [Y1230C]; assay: Inhibition of recombinant human MET A1209G/V1290L/Y1248C mutant (974 to end residues) assessed as residual activity at 10 uM using KKKGQEEEYVFIE as substrate measured after 40 mins in presence of [gamma33P]ATP by scintillation counting method
[4] = target: Receptor-interacting serine/threonine-protein kinase 2 (Homo sapiens) (UniProt O43353); assay: Inhibition of human RIPK2 (1 to 299 residues) using myelin basic protein as substrate measured after 120 mins in presence of [gamma33P]ATP by scintillation counting method; design: scale not given: the % may be the effect or the level left
[5] = Toxicity in nude BALB/c mouse assessed as change in glucose level at 40 to 80 mg/kg, po once daily for 4 weeks measured post-last dose; assay type: organism-based; settings: in vivo, 672 h
Mus musculus = organism: Mus musculus; assay: Inhibition of recombinant full-length mouse PI3K p110beta/p85alpha R123L mutant assessed as residual activity at 10 uM using phosphatidylinositol-4, 5-bisphosphate as substrate measured after 40 mins by HTRF assay
HCT-15 = assay: Antiproliferative activity against human HCT15 cells assessed as reduction in cell viability after 72 hrs by MTT assay; assay type: functional, cell-based; settings: HCT-15, 72 h
SW-620 = assay: Induction of apoptosis in human SW620 cells assessed as decrease in Bcl2 expression up to 200 nM measured after 48 hrs by Western blot analysis; assay type: functional, cell-based
[6] = target: Serine/threonine-protein kinase Nek1 (Homo sapiens) (UniProt Q96PY6); assay: Inhibition of recombinant human NEK1 (1 to 505 residues) assessed as residual activity at 10 uM using RLGRDKYKTLRQIRQ as substrate measured after 40 mins in presence of [gamma33P]ATP by scintillation counting method
Chain of Serine/threonine-protein kinase Nek1 (Homo sapiens) (Q96PY6 whole entry, the tested form may be a part): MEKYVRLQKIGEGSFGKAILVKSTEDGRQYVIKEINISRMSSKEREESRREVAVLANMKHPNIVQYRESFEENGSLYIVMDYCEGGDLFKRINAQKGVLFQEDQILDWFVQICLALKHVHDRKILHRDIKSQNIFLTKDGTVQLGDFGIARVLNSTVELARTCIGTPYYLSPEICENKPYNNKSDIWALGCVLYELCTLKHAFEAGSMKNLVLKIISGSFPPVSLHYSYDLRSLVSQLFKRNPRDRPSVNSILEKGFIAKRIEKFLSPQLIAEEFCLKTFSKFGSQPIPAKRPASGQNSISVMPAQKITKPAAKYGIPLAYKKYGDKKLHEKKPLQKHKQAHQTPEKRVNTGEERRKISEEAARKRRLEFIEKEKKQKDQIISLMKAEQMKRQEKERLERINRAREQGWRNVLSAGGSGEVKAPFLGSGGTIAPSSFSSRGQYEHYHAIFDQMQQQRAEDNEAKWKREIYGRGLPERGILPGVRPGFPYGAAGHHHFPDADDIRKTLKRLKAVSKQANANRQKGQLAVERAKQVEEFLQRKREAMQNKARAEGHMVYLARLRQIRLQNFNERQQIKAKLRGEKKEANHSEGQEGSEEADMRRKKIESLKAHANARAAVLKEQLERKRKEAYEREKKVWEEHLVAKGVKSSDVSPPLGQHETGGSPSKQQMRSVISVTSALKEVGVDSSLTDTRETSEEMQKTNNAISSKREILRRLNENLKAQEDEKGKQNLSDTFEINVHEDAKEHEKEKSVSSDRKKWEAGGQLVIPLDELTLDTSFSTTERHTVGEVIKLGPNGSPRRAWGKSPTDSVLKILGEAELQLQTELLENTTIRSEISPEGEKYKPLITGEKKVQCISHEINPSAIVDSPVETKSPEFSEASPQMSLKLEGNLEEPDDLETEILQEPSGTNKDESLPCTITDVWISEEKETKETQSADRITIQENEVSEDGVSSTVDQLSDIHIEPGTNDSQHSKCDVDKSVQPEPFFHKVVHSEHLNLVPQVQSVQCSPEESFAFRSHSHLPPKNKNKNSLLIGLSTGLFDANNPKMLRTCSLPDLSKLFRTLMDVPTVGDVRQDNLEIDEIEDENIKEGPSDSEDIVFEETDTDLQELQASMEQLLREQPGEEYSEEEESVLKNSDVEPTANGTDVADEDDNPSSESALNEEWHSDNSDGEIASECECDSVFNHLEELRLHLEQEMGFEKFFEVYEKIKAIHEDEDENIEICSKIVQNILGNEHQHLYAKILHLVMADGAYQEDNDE

HCT-116 = assay: Induction of apoptosis in human HCT116 cells assessed as viable cells at 100 nM measured after 48 hrs by Annexin V-FITC/propidium iodide staining-based flow cytometry (reference value: 94.5%); assay type: functional; settings: HCT-116, 48 h, read-out: Activity
[7] = target: Ribosomal protein S6 kinase alpha-5 (Homo sapiens) (UniProt O75582); assay: Inhibition of recombinant human MSK1 (2 to end residues) assessed as residual activity at 10 uM using GRPRTSSFAEGKK as substrate measured after 40 mins in presence of [gamma33P]ATP by scintillation counting method
Chain of Ribosomal protein S6 kinase alpha-5 (Homo sapiens) (O75582 whole entry, looked up): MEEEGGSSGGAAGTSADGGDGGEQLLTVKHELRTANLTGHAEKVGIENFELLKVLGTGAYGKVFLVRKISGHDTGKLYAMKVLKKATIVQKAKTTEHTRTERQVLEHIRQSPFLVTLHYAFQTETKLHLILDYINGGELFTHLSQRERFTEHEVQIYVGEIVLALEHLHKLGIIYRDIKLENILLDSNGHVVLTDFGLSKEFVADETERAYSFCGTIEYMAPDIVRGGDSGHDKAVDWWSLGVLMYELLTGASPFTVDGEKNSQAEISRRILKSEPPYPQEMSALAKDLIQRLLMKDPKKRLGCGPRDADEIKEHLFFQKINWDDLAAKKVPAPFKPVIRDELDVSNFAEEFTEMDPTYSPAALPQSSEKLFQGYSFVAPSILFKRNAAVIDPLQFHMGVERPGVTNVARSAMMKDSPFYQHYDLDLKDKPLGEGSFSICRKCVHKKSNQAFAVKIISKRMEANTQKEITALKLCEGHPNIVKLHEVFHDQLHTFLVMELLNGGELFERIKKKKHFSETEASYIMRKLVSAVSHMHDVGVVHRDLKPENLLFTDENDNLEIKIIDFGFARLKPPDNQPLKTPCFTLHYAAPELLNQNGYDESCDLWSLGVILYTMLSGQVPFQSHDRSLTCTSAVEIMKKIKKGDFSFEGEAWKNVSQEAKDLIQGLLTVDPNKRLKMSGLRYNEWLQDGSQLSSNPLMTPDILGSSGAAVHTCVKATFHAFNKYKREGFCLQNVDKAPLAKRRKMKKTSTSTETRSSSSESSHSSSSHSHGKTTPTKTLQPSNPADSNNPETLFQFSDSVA

Tubulin (Homo sapiens) [8] = target: T1, Tubulin (Homo sapiens) (UniProt P68371+Q9H4B7+P0DPH7+P68366+Q13509+Q71U36+P04350+Q3ZCM7+P07437+P68363+Q9BQE3+Q6PEY2+Q13885+Q9BVA1+Q9BUF5); assay: Disruption of microtubule network in human HCT116 cells assessed as microtubule condensation at 50 nM incubated for 18 hrs by FITC/DAPI staining-based confocal microscopic analysis; assay type: cell-based
[9] = target: Macrophage colony-stimulating factor 1 receptor (Homo sapiens) (UniProt P07333); assay: Inhibition of recombinant human FMS (538 to end residues) assessed as residual activity at 10 uM using KKKSPGEYVNIEFG as substrate measured after 40 mins in presence of [gamma33P]ATP by scintillation counting method
Chain of Macrophage colony-stimulating factor 1 receptor (Homo sapiens) (P07333 whole entry): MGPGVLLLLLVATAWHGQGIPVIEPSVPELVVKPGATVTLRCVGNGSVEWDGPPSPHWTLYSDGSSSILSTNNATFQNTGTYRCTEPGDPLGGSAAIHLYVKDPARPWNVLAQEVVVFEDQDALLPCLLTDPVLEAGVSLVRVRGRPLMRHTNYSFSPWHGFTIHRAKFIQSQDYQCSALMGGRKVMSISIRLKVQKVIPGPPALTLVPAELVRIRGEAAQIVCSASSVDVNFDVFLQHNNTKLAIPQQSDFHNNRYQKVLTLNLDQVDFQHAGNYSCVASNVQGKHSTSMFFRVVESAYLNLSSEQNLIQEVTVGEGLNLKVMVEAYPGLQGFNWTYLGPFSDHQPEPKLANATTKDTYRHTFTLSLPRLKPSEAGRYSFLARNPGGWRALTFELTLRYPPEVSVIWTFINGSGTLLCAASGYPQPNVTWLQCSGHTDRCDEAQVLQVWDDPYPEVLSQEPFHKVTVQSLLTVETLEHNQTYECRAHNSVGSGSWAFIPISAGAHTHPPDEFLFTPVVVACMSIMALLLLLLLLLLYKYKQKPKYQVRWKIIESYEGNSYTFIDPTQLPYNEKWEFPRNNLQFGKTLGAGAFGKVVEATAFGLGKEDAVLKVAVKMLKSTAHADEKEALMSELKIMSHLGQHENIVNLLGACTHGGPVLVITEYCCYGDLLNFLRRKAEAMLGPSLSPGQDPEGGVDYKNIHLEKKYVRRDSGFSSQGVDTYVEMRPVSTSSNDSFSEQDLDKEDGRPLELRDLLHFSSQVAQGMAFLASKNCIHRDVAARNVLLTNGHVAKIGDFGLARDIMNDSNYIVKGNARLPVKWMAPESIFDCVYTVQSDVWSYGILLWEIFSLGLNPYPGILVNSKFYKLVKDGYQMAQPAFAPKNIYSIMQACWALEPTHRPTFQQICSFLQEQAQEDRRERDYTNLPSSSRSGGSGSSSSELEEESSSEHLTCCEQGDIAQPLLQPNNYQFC

Tubulin (Homo sapiens) [10] = target: T1, Tubulin (Homo sapiens); assay: Disruption of microtubule network in human HCT116 cells assessed as microtubule disorganization at 50 nM for 18 hrs by FITC/DAPI staining-based confocal microscopic analysis; assay type: cell-based
[11] = target: Proto-oncogene tyrosine-protein kinase Src (Homo sapiens) (UniProt P12931); assay: Inhibition of human Src (1 to 530 residues) using GGEEEEYFELVKKKK as substrate measured after 40 mins in presence of [gamma33P]ATP by scintillation counting method; design: scale not given: the % may be the effect or the level left
Chain of Proto-oncogene tyrosine-protein kinase Src (Homo sapiens) (P12931 2-536 limits assumed): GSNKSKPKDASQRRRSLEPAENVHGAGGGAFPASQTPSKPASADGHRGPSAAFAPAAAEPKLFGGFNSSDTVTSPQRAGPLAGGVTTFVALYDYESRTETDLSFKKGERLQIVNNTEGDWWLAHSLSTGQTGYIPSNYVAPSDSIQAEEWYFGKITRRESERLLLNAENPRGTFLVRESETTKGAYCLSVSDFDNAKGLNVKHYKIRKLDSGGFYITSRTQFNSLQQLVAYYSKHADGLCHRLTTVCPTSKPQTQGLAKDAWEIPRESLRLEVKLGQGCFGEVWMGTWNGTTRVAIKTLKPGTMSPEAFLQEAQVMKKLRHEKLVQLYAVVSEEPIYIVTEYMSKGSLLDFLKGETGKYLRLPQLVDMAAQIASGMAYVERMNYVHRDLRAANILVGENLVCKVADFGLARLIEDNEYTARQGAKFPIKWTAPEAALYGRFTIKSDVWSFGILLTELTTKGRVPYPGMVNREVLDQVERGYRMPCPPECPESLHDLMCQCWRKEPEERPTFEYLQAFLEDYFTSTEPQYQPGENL

[12] = tested on: Ribosomal protein S6 kinase alpha-1 (Rattus norvegicus), Q63531 [S637N,G697A]; assay: Inhibition of recombinant full-length rat Rsk1 S637N/G697A mutant assessed as residual activity at 10 uM using KKKNRTLSVA as substrate measured after 40 mins in presence of [gamma33P]ATP by scintillation counting method
[13] = tested on: Serine/threonine-protein kinase Nek4 (Homo sapiens), P51957 [P225A]; assay: Inhibition of recombinant full-length human NEK4 P225A mutant assessed as residual activity at 10 uM using myelin basic protein as substrate measured after 40 mins in presence of [gamma33P]ATP by scintillation counting method
Homo sapiens [14] = organism: Homo sapiens; assay: Inhibition of recombinant full-length human JNK2alpha2 S51N mutant assessed as residual activity at 10 uM using ATF2 as substrate measured after 40 mins in presence of [gamma33P]ATP by scintillation counting method
[15] = target: Dual specificity mitogen-activated protein kinase kinase 2 (Homo sapiens) (UniProt P36507); assay: Inhibition of recombinant full-length human MEK2 assessed as residual activity at 10 uM using MBP as substrate measured after 40 mins in presence of [gamma33P]ATP by scintillation counting method
Homo sapiens [16] = organism: Homo sapiens; assay: Inhibition of recombinant full-length human AURKA I31F mutant assessed as residual activity at 10 uM using LRRASLG as substrate measured after 40 mins in presence of [gamma33P]ATP by scintillation counting method
[17] = target: Proto-oncogene tyrosine-protein kinase Src (Homo sapiens) (UniProt P12931); assay: Inhibition of recombinant full-length human SRC assessed as residual activity at 10 uM using Cdc2 peptide as substrate measured after 40 mins in presence of [gamma33P]ATP by scintillation counting method
[18] = target: Ribosomal protein S6 kinase alpha-3 (Homo sapiens) (UniProt P51812); assay: Inhibition of human Rsk2 (2 to end residues) using KKKNRTLSVA as substrate measured after 40 mins in presence of [gamma33P]ATP by scintillation counting method; design: scale not given: the % may be the effect or the level left
Chain of Ribosomal protein S6 kinase alpha-3 (Homo sapiens) (P51812 whole entry, the tested form may be a part): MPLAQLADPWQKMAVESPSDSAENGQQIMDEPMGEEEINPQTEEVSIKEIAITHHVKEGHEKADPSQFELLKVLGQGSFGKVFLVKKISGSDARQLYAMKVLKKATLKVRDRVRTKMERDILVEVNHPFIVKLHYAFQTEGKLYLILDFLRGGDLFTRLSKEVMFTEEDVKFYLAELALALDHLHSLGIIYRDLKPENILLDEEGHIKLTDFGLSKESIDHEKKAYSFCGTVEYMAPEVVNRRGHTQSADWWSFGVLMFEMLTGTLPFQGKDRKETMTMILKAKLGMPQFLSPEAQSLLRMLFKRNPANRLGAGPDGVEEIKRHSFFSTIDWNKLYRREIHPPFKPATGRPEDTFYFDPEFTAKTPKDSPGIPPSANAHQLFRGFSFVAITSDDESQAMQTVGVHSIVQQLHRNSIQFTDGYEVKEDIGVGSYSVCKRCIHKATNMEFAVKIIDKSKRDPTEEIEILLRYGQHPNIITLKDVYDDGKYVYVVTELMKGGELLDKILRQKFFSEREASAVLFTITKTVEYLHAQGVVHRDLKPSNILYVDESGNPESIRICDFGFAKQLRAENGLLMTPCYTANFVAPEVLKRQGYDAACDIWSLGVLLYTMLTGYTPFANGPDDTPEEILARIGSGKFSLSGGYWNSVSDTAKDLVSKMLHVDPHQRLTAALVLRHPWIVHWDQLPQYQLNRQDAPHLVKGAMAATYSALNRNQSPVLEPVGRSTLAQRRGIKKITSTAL

[19] = target: Fibroblast growth factor receptor 4 (Homo sapiens) (UniProt P22455); assay: Inhibition of recombinant human FGFR4 (442 to 755 residues) assessed as residual activity at 10 uM using poly(Glu, Tyr) 4:1 as substrate measured after 40 mins in presence of [gamma33P]ATP by scintillation counting method
Homo sapiens [20] = organism: Homo sapiens; assay: Inhibition of recombinant human ARAF Y301D/Y302D mutant (273 to end residues) assessed as residual activity at 10 uM using myelin basic protein as substrate measured after 40 mins in presence of [gamma33P]ATP by scintillation counting method

Question: What does the source list for Cc1cc(C)c(CNc2nc(Cl)nc3c2ncn3C2CCCC2)c(=O)[nH]1?
Answer: IC50 (SW480): 0.0645 µM; Activity [1]: 94.5%; Activity [2]: 112%; Activity [3]: 110%; Activity [4]: 106%; Activity [5]: Non-Toxic; Activity (Mus musculus): 104%; IC50 (HCT-15): 0.061 µM; Activity (SW-620): Active; Activity [6]: 114%; viability at 0.1 µM (HCT-116): 39%; Activity [7]: 112%; Activity (Tubulin (Homo sapiens) [8]): Active; Activity [9]: 102%; Activity (Tubulin (Homo sapiens) [10]): Active; Activity [11]: 124%; Activity [12]: 104%; Activity [13]: 104%; Activity (Homo sapiens [14]): 103%; Activity [15]: 109%; Activity (Homo sapiens [16]): 103%; Activity [17]: 130%; Activity [18]: 100%; Activity [19]: 100%; Activity (Homo sapiens [20]): 122%

— ChEMBL document CHEMBL4311992, “Discovery of 3-(((9H-purin-6-yl)amino)methyl)-4,6-dimethylpyridin-2(1H)-one derivatives as novel tubulin polymerization inhibitors for treatment of cancer” (Eur J Med Chem, 2019)
